Measurements taken from US20210024482A1, “Novel Group of STAT3 Pathway Inhibitors and Cancer Stem Cell Pathway Inhibitors” (Sumitomo Dainippon Pharma Oncology, Inc., priority 2007, published 2021).

Key:
Assay type in all cases: cell-based
Stat3 = assay: Stat3-luciferase (Stat3-Luc) reporter assay, OSM-stimulated HeLa cells; details: FIG. 6
Experimental: HeLa Cells were co-transfected with Stat3-luciferase (Stat3-Luc) reporter vector (Panomics, Fremont, Calif.) and Renilla luciferase (Promega, Madison, Wis.) using Lipofectamine 2000 as described by the manufacturer (Invitrogen). Following transfection, cells were maintained in medium containing 0.5% FBS for 24 hours. Cells were then treated with the indicated compound for 30 minutes prior to the addition of 25 ng/ml oncostatin M (OSM) (R&D Systems, Minneapolis, Minn.) to the medium. 6 hours following OSM addition, cells were harvested and levels of firefly and renilla luciferase were measured using the Dual-Glo Luciferase Assay System as described by the manufacturer (Promega).
Compounds were tested for their ability to inhibit Stat3 transcription activation activity in cells using a Stat3-luciferase (Stat3-luc) reporter construct. Cells transfected with Stat3-luc were cultured in reduced serum medium prior to addition of indicated compound for 30 minutes. Cells were then stimulated with 25 ng/ml oncostatin M (OSM) for 6 hours followed by detection of Stat3-luc reporter activity. […] AG490, a known inhibitor of the Jak-Stat pathway, was included as a positive control for Stat3 inhibition.

CD34^+ BM Erythroid = assay: Colony formation assay, CD34+ bone marrow erythroid lineage
Excerpt: In a similar fashion to PMBCs, CD34^+ bone marrow hematopoietic stem cells were spared when treated with compound 401.

HT29 colon cancer cells = assay: Colony formation assay, HT29; details: Homo sapiens, HT-29, similar conditions
DU145 cells = assay: Annexin V flow cytometry in DU145 cells; details: 5 hours post-treatment, FIG. 11
Experimental: (§1) Cells treated with or without compound were harvested at 5 hours post treatment for Annexin-V staining. Collected cells were washed with PBS and resuspended in Annexin-V-FITC containing buffer and stained according to manufactures directions (Roche). Annexin-V positive cells were determined by Flow cytometry.
Additionally, DU145 cells were first treated with DMSO or the indicated concentrations of compound 401, then stained with Annexin V, and followed by Flow cytometry analysis 5 hours post-treatment.

[1] = system: Hoechst side population cells; assay: Annexin V staining of Hoechst side population cells; details: FIG. 9A
Experimental: as §1
Cells treated with indicated compound for an indicated time were either fixed in 4% formaldehyde or cold methanol for the detection of Annexin V, cleaved caspase 3, or stat3, respectively. Coverslips were air dried and rehydrated in PBS at room temperature for 10 min. Samples were then incubated in blocking buffer (PBS, 5% FBS) for 10 min at room temperature in a humid chamber. Cells were incubated overnight at 4° C. with primary antibodies. After washing, the cells were incubated for 1 hour at room temperature with a 1:500 dilution of FITC conjugated anti-rabbit antibody. Images were captured with a Nikon TE200 microscope equipped with epifluorescence and a SPOT mosaic CCD camerapolyclonal Anti-cleaved caspase 3 antibody (1:100) was obtained from Cell Signaling Technology, Danvers, Mass. Annexin-V-FITC was obtained from Roche, Penzberg, Germany. Polyclonal anti-Stat3 antibody was obtained from Santa Cruz.
The Hoechst side population cells were treated with compound 401 and the mode of cell death was accessed by Annexin V (an early marker for apoptosis) staining.

SW480 Hoechst SP cells = assay: MTT cell viability, SW480 Hoechst side population CSCs; details: FIG. 8B
Experimental: To identify and isolate side population (SP) and non-SP fractions, SW480 cells were removed from the culture dish with trypsin and EDTA, pelleted by centrifugation, washed with phosphate-buffered saline (PBS), and resuspended at 37° C. in Dulbecco's modified Eagle's medium (DMEM) containing 2% FBS and 1 mM HEPES. The cells were then labeled with Hoechst 33342 (Invitrogen) at a concentration of 5 μg/mL. The labeled cells were incubated for 120 minutes at 37° C., either alone or with 50 μM verapamil (Sigma-Aldrich, St. Louis). After staining, the cells were suspended in Hanks' balanced saline solution (HBSS; Invitrogen) containing 2% FBS and 1 mM HEPES, passed a through 40 μm mesh filter, and maintained at 4° C. until flow cytometry analysis. The Hoechst dye was excited at 350 nm, and its fluorescence was measured at two wavelengths using a 450 DF10 (450/20 nm band-pass filter) and a 675LP (675 nm long-pass edge filter) optical filter. The gating on forward and side scatter was not stringent, and only debris was excluded,
(§2) For 3-(4,5 dimethylthiazol-2-yl)-2,5-diphenyltetrazolium (MTT) (Sigma-Aldrich, St. Louis, Mo.) analysis, cells were plated in 96 well plates at 10,000 cells per well. 24 hours after plating, compound was added to cells at indicated doses. 22 hours following compound addition, MTT was added to each well (0.5 mg/ml, final concentration) and plates were incubated for an additional 2 hours at 37° C. Medium was then aspirated and the formazan product was solubilized in 100 μl of isopropyl alcohol. The absorbance of each well was measured at 570 nm using a microplate reader.
The IC50 of compound 401 against the Hoechst side population was accessed in MTT assays and was compared to the IC50 against the non-side population.
In addition, we tested the activities of several other compounds against cancer stem cells. Briefly, freshly isolated CSCs (SW480 Hoechst SP cells or CD44^high FaDu cells) were exposed to a dose range (30-0.117 μM) of compound for 48 h before examining cell viability by MTT assay. IC50s were estimated by plotting the percentage of surviving cells. As shown in Table 4 and Table 5, compounds of present invention can target cancer stem cells.

[2] = system: Peripheral blood mononuclear cells (PBMCs); assay: MTT cell viability of normal PBMCs; details: PBMC, 24 hour incubation
Experimental: as §2
Under assay conditions that result in the death of virtually all cancer cells, normal cells remain substantially viable.

For `CC(=O)c1cc2c(o1)C(=O)c1ccccc1C2=O` [Compound 401, 2-acetylnaphtho[2,3-b]furan-4,9-dione], the “inhibition of OSM-stimulated Stat3 reporter activity” value (Stat3) was “inhibited OSM-stimulated Stat3 reporter activity”, the therapeutic window (CD34^+ BM Erythroid; CD34+ bone marrow cells vs DU145 and HT29, in vitro) was “greater than 50 fold” and the IC50 (CD34^+ BM Erythroid; normal cells, 6 hours incubation, colony formation) was > 30 µM. For the same compound, the IC50 (HT29 colon cancer cells) was < 0.5 µM, the “Annexin V staining” value (DU145 cells) was “dose-dependent increase in the Annexin V staining” and the “mode of cell death by Annexin V staining” value [1] was “the dying cells are Annexin V positive”. The “sensitivity of side population compared to non-side population” value (SW480 Hoechst SP cells) was “the side population is as sensitive as the non-side population” and the IC50 [2] was 14 µM.
